From ChEMBL document CHEMBL3351305, “Structure-based design of a novel series of azetidine inhibitors of the hepatitis C virus NS3/4A serine protease” (Bioorg Med Chem Lett, 2014)
Calls of active or inactive are those of the source. The calls are words filed in the database; no cut-off is given here.

Legend:
[1] = molecular target: Hepatitis C virus serine protease, NS3/NS4A (Hepatitis C virus, UniProt A3EZI9+D2K2A8); test: Inhibition of full length Hepatitis C virus genotype 1b Con1 NS3/4A by FRET assay; parameters: species or system Hepatitis C virus (isolate Con1)
Sequence of Hepatitis C virus serine protease, NS3/NS4A (D2K2A8 whole entry): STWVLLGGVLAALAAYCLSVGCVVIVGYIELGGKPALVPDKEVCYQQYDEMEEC
Sequence of Hepatitis C virus serine protease, NS3/NS4A (A3EZI9 whole entry): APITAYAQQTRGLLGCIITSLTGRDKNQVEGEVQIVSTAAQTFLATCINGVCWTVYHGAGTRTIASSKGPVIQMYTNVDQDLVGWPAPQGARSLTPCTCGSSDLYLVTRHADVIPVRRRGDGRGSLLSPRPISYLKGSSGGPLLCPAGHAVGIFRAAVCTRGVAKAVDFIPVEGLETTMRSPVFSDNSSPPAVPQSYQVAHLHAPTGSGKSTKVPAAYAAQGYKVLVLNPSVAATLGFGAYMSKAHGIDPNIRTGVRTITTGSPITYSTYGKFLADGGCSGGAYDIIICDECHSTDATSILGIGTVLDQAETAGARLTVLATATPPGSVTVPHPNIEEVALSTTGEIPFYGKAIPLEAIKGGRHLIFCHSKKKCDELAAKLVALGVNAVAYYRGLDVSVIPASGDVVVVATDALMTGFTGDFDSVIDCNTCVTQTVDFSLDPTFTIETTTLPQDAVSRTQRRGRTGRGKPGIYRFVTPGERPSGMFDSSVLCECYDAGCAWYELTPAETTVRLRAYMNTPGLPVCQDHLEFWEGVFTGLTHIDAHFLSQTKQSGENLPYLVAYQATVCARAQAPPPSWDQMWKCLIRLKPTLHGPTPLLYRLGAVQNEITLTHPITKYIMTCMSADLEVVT

[2] = Half life in cynomolgus monkey liver microsomes; type: ADME, Macaca fascicularis
[3] = Selectivity index, ratio of CC50 for human Huh7 cells to EC50 for Hepatitis C virus genotype 1b Con1; type: toxicity, cell-based, Huh-7; details: read-out: Ratio CC50/EC50
Hepatitis C virus = test: Antiviral activity against Hepatitis C virus genotype 1b Con1 infected in human Huh7 cells assessed as inhibition of NS4A expression by ELISA; type: functional, cell-based, Hepacivirus hominis; details: genotype 1b Con1, Huh-7
[4] = Half life in human liver microsomes; type: ADME
[5] = Half life in rat liver microsomes; type: ADME
[6] = Clearance in rat liver microsomes assessed per mg protein; type: ADME; details: read-out: CLH
[7] = Clearance in cynomolgus monkey liver microsomes assessed per mg protein; type: ADME, Macaca fascicularis; details: read-out: CLH
[8] = Clearance in human liver microsomes assessed per mg protein; type: ADME; details: read-out: CLH
[9] = test system: Hepatitis C virus serine protease, NS3/NS4A (Hepatitis C virus), D2K2A8+A3EZI9 [A156S]; test: Inhibition of Hepatitis C virus genotype 1b Con1 NS3/4A A156S mutant by FRET assay; details: Hepatitis C virus (isolate Con1)
[10] = Inhibition of human leukocyte elastase

Row | SMILES | IC50 [1] | EC50 (Hepatitis C virus) | other results
1 | COc1ccc2c(OC[C@@H]3C[C@H]4C(=O)N(C)CCCC/C=C\[C@H]5C[C@]5(C(=O)NS(=O)(=O)C5(C)CC5)NC(=O)N34)cc(-c3nc(C(C)C)cs3)nc2c1Cl | 2.1 nM | 60 nM | half-life [2]: < 10 min; selectivity ratio [3]: > 1500; half-life [4]: < 10 min; half-life [5]: < 10 min; microsomal CLint [6]: > 150 µL/min/mg; microsomal CLint [7]: > 150 µL/min/mg; microsomal CLint [8]: > 150 µL/min/mg
2 | COc1ccc2c(OC[C@@H]3C[C@H]4C(=O)N(C)CCCC/C=C\[C@H]5C[C@]5(C(=O)NS(=O)(=O)C5(C)CC5)NC(=O)N34)cc(-c3nc(C(C)C)cs3)nc2c1F | 16.8 nM | 872 nM | inhibition [9]: inactive
3 | COc1ccc2c(OC[C@@H]3C[C@H]4C(=O)N(C)CCCC/C=C\[C@H]5C[C@]5(C(=O)NS(=O)(=O)C5(C)CC5)NC(=O)N34)cc(-c3nc(C(C)C)cs3)nc2c1C | 6.6 nM | 45 nM | half-life [2]: < 10 min; half-life [4]: < 10 min; half-life [5]: < 10 min; microsomal CLint [6]: > 150 µL/min/mg; microsomal CLint [7]: > 150 µL/min/mg; microsomal CLint [8]: > 150 µL/min/mg
4 | CCC[C@H](NC(=O)[C@@H]1[C@H]2CCC[C@H]2CN1C(=O)[C@@H](NC(=O)[C@@H](NC(=O)c1cnccn1)C1CCCCC1)C(C)(C)C)C(=O)C(=O)NC1CC1 [TELAPREVIR] | – | – | inhibition [9]: inactive; IC50 [10]: 600 nM
5 | CC(C)(C)NC(=O)N[C@H](C(=O)N1C[C@H]2[C@@H]([C@H]1C(=O)NC(CC1CCC1)C(=O)C(N)=O)C2(C)C)C(C)(C)C (some centres not stated) | – | – | inhibition [9]: inactive

Further lines, with some results ahead:

Row | IC50 [1] | EC50 (Hepatitis C virus) | SMILES | other results
6 | 278 nM | – | COc1ccc2c(OC[C@H]3C[C@@H]4C(=O)N[C@@]5(C(=O)NS(=O)(=O)C6CC6)C[C@@H]5/C=C\CCCCN(C)C(=O)N34)cc(-c3ccccc3)nc2c1 | –
7 | 45 nM | 1860 nM | COc1ccc2c(OC[C@@H]3C[C@H]4C(=O)N(C)CCCC/C=C\[C@H]5C[C@]5(C(=O)NS(=O)(=O)C5CC5)NC(=O)N34)cc(-c3ccccc3)nc2c1 | –
8 | < 1000 nM | < 750 nM | COc1ccc2c(OC[C@@H]3C[C@H]4C(=O)N(C)CCCC/C=C\[C@H]5C[C@]5(C(=O)NS(=O)(=O)C5CC5)NC(=O)N34)cc(-c3nc(C(C)C)cs3)nc2c1Cl | –
9 | 0.8 nM | 2.8 nM | COc1ccc2c(O[C@@H]3C[C@H]4C(=O)N[C@]5(C(=O)O)C[C@H]5/C=C\CCCCC[C@H](NC(=O)OC5CCCC5)C(=O)N4C3)cc(-c3csc(NC(C)C)n3)nc2c1 [CILUPREVIR] | –
10 | < 1000 nM | < 750 nM | COc1ccc2c(OC[C@@H]3C[C@H]4C(=O)N(C)CCCC/C=C\[C@H]5C[C@]5(C(=O)NS(=O)(=O)C5CC5)NC(=O)N34)cc(-c3nc(C(C)C)cs3)nc2c1C | –
11 | 1.3 nM | 412 nM | COc1ccc2c(OC[C@@H]3C[C@H]4C(=O)N(C)CCCC/C=C\[C@H]5C[C@]5(C(=O)NS(=O)(=O)C5(C)CC5)NC(=O)N34)cc(-c3nc(C(C)C)cs3)nc2c1 | –
12 | 2400 nM | – | COc1ccc2c(OC[C@@H]3C[C@H]4C(=O)N[C@@]5(C(=O)NS(=O)(=O)C6CC6)C[C@@H]5/C=C\CCCCN(C)C(=O)N34)cc(-c3ccccc3)nc2c1 | –
13 | 3.5 nM | 242 nM | COc1ccc2c(OC[C@H]3C[C@@H]4C(=O)N(C)CCCC/C=C\[C@H]5C[C@]5(C(=O)NS(=O)(=O)C5CC5)NC(=O)N34)cc(-c3ccccc3)nc2c1 | –
